Data on 23 compounds can be found in US20240025906A1 (NEURON23, INC., priority 2022, published 2024).

For one experiment, the target named is T1, TYK2 JH2 (Homo sapiens, UniProt P29597).
T1 construct: purchased DiscoverX (KINOMEscan KdELECT service); host or cells: E. coli BL21-derived (T7 phage display) or HEK-293
Kind of experiment: TYK2 JH2 binding assay (KINOMEscan KdELECT competitive binding). Particulars: TYK2 JH2 domain, DiscoverX KINOMEscan KdELECT (Assay A); read-out: Biochemical TYK2_DiscoverX_JH2_BND_Kd. In outline: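 Kd values come from qPCR measurement of kinase retained on an immobilized-ligand resin after 1 h room-temperature competition with compound in an 11-point, 3-fold series.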

Experiment [1] deals with JAK1/TYK2 pSTAT5 (Tyr694/699) in THP-1 cell line. Kind of experiment: IFNa-stimulated JAK1/TYK2 pSTAT5 (Tyr694/699) inhibition cellular assay, AlphaLISA. It counts as cell-based. Particulars: THP-1 cells, IFNa-stimulated, AlphaLISA (Assay B), read-out: Cellular_THP1_IFNa-pSTATS_TYK2. The gist of the method: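 THP-1 cells (2e4/well in HBSS) were preincubated with compound (8 points, 6-fold steps from 10000 nM final) for 1 h at 37 °C, then stimulated with IFNa (added at 100 ng/mL) for 30 min. Lysate pSTAT5 was read by AlphaLISA at 615 nm. IC50 came from a 4-parameter fit with bottom 0 and Hill −1.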

Where two headings read alike, the source gives them in different places. Some results are limits rather than exact numbers.

T1 sequence (P29597 589-875 limits assumed): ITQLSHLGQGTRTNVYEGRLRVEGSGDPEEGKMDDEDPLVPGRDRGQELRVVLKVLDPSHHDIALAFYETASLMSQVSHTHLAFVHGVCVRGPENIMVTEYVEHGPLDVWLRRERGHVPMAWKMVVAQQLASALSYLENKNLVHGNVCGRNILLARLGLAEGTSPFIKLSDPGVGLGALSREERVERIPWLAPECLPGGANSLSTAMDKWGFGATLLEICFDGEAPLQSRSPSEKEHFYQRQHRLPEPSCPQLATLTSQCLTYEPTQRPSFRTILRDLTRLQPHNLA

Take `CNc1ncc(-c2nc3ccc(N4CCOCC4)cn3n2)c2cc(NC(=O)[C@@H]3C[C@@H]3C)ncc12` [Example 530, (1R,2S)-2-methyl-N-(8-(methylamino)-5-(6-morpholino-[1,2,4]triazolo[1,5-a]pyridin-2-yl)-2,7-naphthyridin-3-yl)cycloproapne-1-carboxamide]: the Kd on TYK2 JH2 was no more than 100 nM. The IC50 in experiment [1] (Homo sapiens) is no more than 500 nM.
On the same counts, the results for `CNc1ncc(-c2nc3ccc(N4CCOCC4)cn3n2)c2cc(NC(=O)C3CC34CC4)ncc12` (stereo not shown) [Example 531, N-(8-(methylamino)-5-(6-morpholino-[1,2,4]triazolo[1,5-a]pyridin-2-yl)-2,7-naphthyridin-3-yl)spiro[2.2]pentane-1-carboxamide] are no more than 100 nM and no more than 500 nM.
On to `CNc1ncc(-c2nc3ccc(N4CCOCC4)cn3n2)c2cc(Nc3ccccn3)ncc12` [Example 536, N^1-methyl-4-(6-morpholino-[1,2,4]triazolo[1,5-a]pyridin-2-yl)-N^6-(pyridin-2-yl)-2,7-naphthyridine-1,6-diamine], for which the Kd on TYK2 JH2 was no more than 100 nM. In experiment [1] (Homo sapiens), the IC50 is no more than 500 nM.
With `CNc1ncc(-c2nc3ccc(N4CCOCC4)cn3n2)c2cc(Nc3ncccc3F)ncc12` [Example 537, N^6-(3-fluoropyridin-2-yl)-N^1-methyl-4-(6-morpholino-[1,2,4]triazolo[1,5-a]pyridin-2-yl)-2,7-naphthyridine-1,6-diamine], the Kd at TYK2 JH2 is no more than 100 nM. Besides, the IC50 in experiment [1] (Homo sapiens) was no more than 500 nM.
For `CNc1ncc(-c2nc3ccc(N4CCOCC4)cn3n2)c2cc(Nc3ccc(C(C)(C)O)cn3)ncc12` [Example 538, 2-(6-((8-(methylamino)-5-(6-morpholino-[1,2,4]triazolo[1,5-a]pyridin-2-yl)-2,7-naphthyridin-3-yl)amino)pyridin-3-yl)propan-2-ol], the Kd at TYK2 JH2 was no more than 100 nM. The IC50 in experiment [1] (Homo sapiens) was no more than 500 nM.
Regarding `CNc1ncc(-c2nc3ccc(N4CCO[C@@H](C)C4)cn3n2)c2cc(NC(=O)[C@H]3C[C@H]3C)ncc12` [Example 539, (1S,2R)-2-methyl-N-(8-(methylamino)-5-(6-((S)-2-methylmorpholino)-[1,2,4]triazolo[1,5-a]pyridin-2-yl)-2,7-naphthyridin-3-yl)cyclopropane-1-carboxamide], on TYK2 JH2, the Kd was no more than 100 nM. In experiment [1] (Homo sapiens), the IC50 was no more than 500 nM.
On the same counts, the results for `CNc1ncc(-c2nc3ccc(N4CCO[C@@H](C)C4)cn3n2)c2cc(NC(=O)C3(F)CC3)ncc12` [Example 540, (S)-1-fluoro-N-(8-(methylamino)-5-(6-(2-methylmorpholino)-[1,2,4]triazolo[1,5-a]pyridin-2-yl)-2,7-naphthyridin-3-yl)cyclopropane-1-carboxamide] are no more than 100 nM and no more than 500 nM.
Consider `CNc1ncc(-c2nc3ccc(N4CCO[C@@H](C)C4)cn3n2)c2cc(Nc3ccccn3)ncc12` [Example 543, (S)—N^1-methyl-4-(6-(2-methylmorpholino)-[1,2,4]triazolo[1,5-a]pyridin-2-yl)-N^6-(pyridin-2-yl)-2,7-naphthyridine-1,6-diamine], for which the Kd at TYK2 JH2 was no more than 100 nM. In addition, in experiment [1] (Homo sapiens), the IC50 is no more than 500 nM.
`CNc1ncc(-c2nc3ccc(N4CCO[C@@H](C)C4)cn3n2)c2cc(Nc3cc(C)n(C)n3)ncc12` [Example 544, (S)—N^6-(1,5-dimethyl-1H-pyrazol-3-yl)-N^1-methyl-4-(6-(2-methylmorpholino)-[1,2,4]triazolo[1,5-a]pyridin-2-yl)-2,7-naphthyridine-1,6-diamine]: the Kd on TYK2 JH2 was no more than 100 nM. In addition, the IC50 in experiment [1] (Homo sapiens) was no more than 500 nM.
For `CNc1ncc(-c2nc3ccc(N4CCO[C@@H](C)C4)cn3n2)c2cc(Nc3ccn(C)n3)ncc12` [Example 545, (S)—N^1-methyl-N^6-(1-methyl-1H-pyrazol-3-yl)-4-(6-(2-methylmorpholino)-[1,2,4]triazolo[1,5-a]pyridin-2-yl)-2,7-naphthyridine-1,6-diamine], in that order: no more than 100 nM and no more than 500 nM.
`CNc1ncc(-c2nc3ccc(N4CCO[C@H](C)C4)cn3n2)c2cc(NC(=O)[C@@H]3C[C@@H]3C)ncc12` [Example 546, (1R,2S)-2-methyl 1N-(8-(methylamino)-5-(6-((R)-2-methylmorpholino)-[1,2,4]triazolo[1,5-a]pyridin-2-yl)-2,7-naphthyridin-3-yl)cyclopropane-1-carboxamide]: the Kd at TYK2 JH2 is no more than 100 nM. The IC50 in experiment [1] (Homo sapiens) was no more than 500 nM.
For the compound `CNc1ncc(-c2nc3ccc(N4CCO[C@H](C)C4)cn3n2)c2cc(NC(=O)[C@H]3C[C@H]3C)ncc12` [Example 547, (1S,2R)-2-methyl-N-(8-(methylamino)-5-(6-((R)-2-methylmorpholino)-[1,2,4]triazolo[1,5-a]pyridin-2-yl)-2,7-naphthyridin-3-yl)cyclopropane-1-carboxamide], the Kd at TYK2 JH2 is no more than 100 nM. Besides, in experiment [1] (Homo sapiens), the IC50 is no more than 500 nM.
Take `CNc1ncc(-c2nc3ccc(N4CCO[C@H](C)C4)cn3n2)c2cc(NC(=O)[C@H]3C[C@H]3F)ncc12` [Example 548, (1R,2R)-2-fluoro-N-(8-(methylamino)-5-(6-((R)-2-methylmorpholino)-[1,2,4]triazolo[1,5-a]pyridin-2-yl)-2,7-naphthyridin-3-yl)cyclopropane-1-carboxamide]: the Kd on TYK2 JH2 is no more than 100 nM. In addition, the IC50 in experiment [1] (Homo sapiens) was no more than 500 nM.
On the same counts, the results for `CNc1ncc(-c2nc3ccc(N4CCO[C@H](C)C4)cn3n2)c2cc(NC(=O)[C@@H]3C[C@@H]3F)ncc12` [Example 549, (1S,2S)-2-fluoro-N-(8-(methylamino)-5-(6-((R)-2-methylmorpholino)-[1,2,4]triazolo[1,5-a]pyridin-2-yl)-2,7-naphthyridin-3-yl)cyclopropane-1-carboxamide] are no more than 100 nM and no more than 500 nM.
For `CNc1ncc(-c2nc3ccc(N4CCO[C@H](C)C4)cn3n2)c2cc(NC(=O)C3(F)CC3)ncc12` [Example 550, (R)-1-fluoro-N-(8-(methylamino)-5-(6-(2-methylmorpholino)-[1,2,4]triazolo[1,5-a]pyridin-2-yl)-2,7-naphthyridin-3-yl)cyclopropane-1-carboxamide], the Kd at TYK2 JH2 is no more than 100 nM. Besides, the IC50 in experiment [1] (Homo sapiens) is no more than 500 nM.
`CNc1ncc(-c2nc3ccc(N4CCO[C@H](C)C4)cn3n2)c2cc(Nc3ccccn3)ncc12` [Example 551, (R)—N^1-methyl-4-(6-(2-methylmorpholino)-[1,2,4]triazolo[1,5-a]pyridin-2-yl)-N^6-(pyridin-2-yl)-2,7-naphthyridine-1,6-diamine]: the Kd on TYK2 JH2 was no more than 100 nM. Besides, the IC50 in experiment [1] (Homo sapiens) is no more than 500 nM.
Regarding `CNc1ncc(-c2nc3ccc(N4CCO[C@H](C)C4)cn3n2)c2cc(NC(=O)NC3CC3)ncc12` [Example 552, (R)-1-cyclopropyl-3-(8-(methylamino)-5-(6-(2-methylmorpholino)-[1,2,4]triazolo[1,5-a]pyridin-2-yl)-2,7-naphthyridin-3-yl)urea], on TYK2 JH2, the Kd is no more than 100 nM. For the same compound, the IC50 in experiment [1] (Homo sapiens) was no more than 500 nM.
Consider `CNc1ncc(-c2nc3ccc(N4C[C@@H](C)O[C@@H](C)C4)cn3n2)c2cc(N)ncc12` [Example 553, 4-(6-((2R,6S)-2,6-dimethylmorpholino)-[1,2,4]triazolo[1,5-a]pyridin-2-yl)-N^1-methyl-2,7-naphthyridine-1,6-diamine], for which the Kd on TYK2 JH2 is no more than 100 nM. Further, the IC50 in experiment [1] (Homo sapiens) is greater than 500 nM.
As for `CNc1ncc(-c2nc3ccc(N4C[C@@H](C)O[C@@H](C)C4)cn3n2)c2cc(NC(=O)[C@@H]3C[C@@H]3F)ncc12` [Example 554, (1S,2S)—N-(5-(6-((2R,6S)-2,6-dimethylmorpholino)-[1,2,4]triazolo[1,5-a]pyridin-2-yl)-8-(methylamino)-2,7-naphthyridin-3-yl)-2-fluoracyclopropane-1-carboxamide], the Kd at TYK2 JH2 is no more than 100 nM. For the same compound, in experiment [1], the IC50 is no more than 500 nM.
For the compound `CNc1ncc(-c2nc3ccc(N4C[C@@H](C)O[C@@H](C)C4)cn3n2)c2cc(NC(=O)[C@H]3C[C@H]3C)ncc12` [Example 555, (1S,2R)-N-(5-(6-((2R,6S)-2,6-dimethylmorpholino)-[1,2,4]triazolo[1,5-a]pyridin-2-yl)-8-(methylamino)-2,7-naphthyridin-3-yl)-2-methylcyclopropane-1-carboxamide], the Kd on TYK2 JH2 was no more than 100 nM. Also, in experiment [1] (Homo sapiens), the IC50 was no more than 500 nM.
In the case of `CNc1ncc(-c2nc3ccc(N4C[C@@H](C)O[C@@H](C)C4)cn3n2)c2cc(NC(=O)CC(F)(F)F)ncc12` [Example 556, N-(5-(6-((2R,6S)-2,6-dimethylmorpholino)-[1,2,4]triazolo[1,5-a]pyridin-2-yl)-8-(methylamino)-2,7-naphthyridin-3-yl)-3,3,3-trifluoropropanamide], at TYK2 JH2, the Kd is no more than 100 nM. Besides, the IC50 in experiment [1] (Homo sapiens) is no more than 500 nM.
`CNc1ncc(-c2nc3ccccn3n2)c2cc(Nc3ccccn3)ncc12` [Example 557, 4-([1,2,4]triazolo[1,5-a]pyridin-2-yl)-N^1-methyl-N^6-(pyridin-2-yl)-2,7-naphthyridine-1,6-diamine]: the Kd at TYK2 JH2 is no more than 100 nM. The IC50 in experiment [1] (Homo sapiens) was no more than 500 nM.
On the same counts, the results for `CNc1ncc(-c2nc3ccc(N4CCC(F)(F)CC4)cn3n2)c2cc(NC(=O)[C@H]3C[C@H]3C)ncc12` [Example 558, (1S,2R)—N-(5-(6-(4,4-difluoropiperidin-1-yl)-[1,2,4]triazolo[1,5-a]pyridin-2-yl)-8-(methylamino)-2,7-naphthyridin-3-yl)-2-methylcyclopropane-1-carboxamide] are no more than 100 nM and no more than 500 nM.
